These results are taken from patent US5919796A, “Hydroximic acid derivatives, pharmaceutical compositions containing them, and processes for preparing the same” (BIOREX Kutato es Fejleszto Rt., priority 1994, dated 1999).

Counter-ions that a name gives are not always drawn.

The term EC50 denotes the midpoint of the concentration-response curve.

Test [1] has as its system thoracal aorta isolated from rabbit. In words: Vasorelaxant effect in vitro on isolated thoracal aorta. The conditions noted are these: Oryctolagus cuniculus. The source says: The vasorelaxant effect of the compounds was investigated in vitro on the thoracal aorta isolated from rabbit [Am. J. Physiol. 257, 1327-1333 (1989)].
In the next test the test system is sciatic and tibial nerve. As to the kind of experiment: Motor and sensory impulse conduction rate of nerves in STZ-induced diabetic rats (diabetic angiopathy complications). It is filed as in vivo, male Cr:Wistar rats. The following applies: for MCR correction (%): motor conduction rate; for SCR correction (%): sensory conduction rate. On the procedure: Furthermore, the effect of the compounds of the invention in the treatment of complications associated with the diabetic angiopathy was studied. The in vivo action was measured on rats, by the change of rate of the impulse conduction in an STZ-induced diabetic state as follows.
The electrophysiological measurements were carried out on anaesthetized male Cr:Wistar rats at the end of a one-month period of treatment with 20 mg/kg administered orally (p.o.). The sciatic or tibial nerve, respectively, was excited by needle electrodes stitched near the nerve on the lower extremity and the electromyographic (EMG) responses of the plantar muscle were registered. Five EMG-s each were averaged and the results were stored in a computer. The latency periods of the motor and sensory components were measured. The rates of impulse conduction were calculated from the ratio of the distance between two sites of excitation to the differences of latency.

Test [2] deals with Reperfusion-induced arrhythmia. In words: Reperfusion-induced arrhythmia (ventricular tachycardia and fibrillation, survival) in anaesthetized rats. It is filed as in vivo, rat. The conditions noted are these: 1 mg/kg i.v., 5 minutes before compressing the left-sided descending coronary artery; first 3 minutes of reperfusion. As for the experimental part:
The Reperfusion-induced arrhythmia [ventricular tachycardia (VI) and ventricular fibrillation (VF)] was studied on anaesthetized rats. Myocardial ischemia was elicited by compressing the left-sided descending coronary artery for 5 minutes and after the ceasing thereof, by a 10-minute reperfusion of the heart. ECG was continuously monitored, and the change of the mean duration of VT and VF under effect of the test compounds, as well as the survival, were measured in the first 3 minutes of reperfusion. The test compounds were administered in an intravenous (i.v.) dose of 1 mg/kg by 5 minutes before compressing the left-sided descending coronary artery.

[3] abbreviates: 20 mg/kg p.o., one-month treatment.

Take `CCN(CC)CCCON=C(Cl)c1cccnc1` [Example 4, O-(3-diethylaminopropyl)-3-pyridinehydroximoyl chloride hydrochloride]: a half-maximal response in test [1] (EC50) required 82 µM.

In test [1], `FC(F)(F)c1cccc(C(Cl)=NOCCCN2CCCCC2)c1` [Example 8, N-[3-(1-piperidinyl)propoxy]-3'-(trifluoromethyl)benzimidoylchloride hydrochloride] came in with an EC50 of 15 µM.

As for `Cl.O=[N+]([O-])c1cccc(C(Cl)=NOCCCN2CCCCC2)c1` [Example 7, O-(3-piperidinopropyl)-3-nitro-benzhydroximoyl chloride hydrochloride], in the test with sciatic and tibial nerve (setting [3]), the “MCR correction (%)” value is 48% and the “SCR correction (%)” value amounted to 64%. In test [2], the “survival of experimental animals” value is given as 100%. Moreover, in test [1], the response was half-maximal at 6 µM (EC50).

`CC(C)COCC(CN(Cc1ccccc1)c1ccccc1)N1CCCC1` (stereo not shown) [Ref, Bepridil, reference compound]: the EC50 in test [1] was determined as 83 µM.

Take `ClC(=NOCCCN1CCCCC1)c1cccnc1` [Example 2, N-(3-piperidinopropoxy)-3-pyridinecarboximodyl chloride dihydrochloride]: in the test on sciatic and tibial nerve (setting [3]), the “MCR correction (%)” value is 100% and the “SCR correction (%)” value is reported as 100%. Also, in test [2], the “survival of experimental animals” value was 100%. In addition, the EC50 in test [1] is 27 µM.

In test [1], `CN1CCN(CCCON=C(Cl)c2cccnc2)CC1` [Example 9, N-[3-(4-methylpiperazin-1-yl)-1-propoxy]-3-pyridinecarboximidoyl chloride trihydrochloride] displayed an EC50 of 76 µM.

As to `N=C(N)NN` [Reference drug, aminoguanidine, reference compound], in the test with sciatic and tibial nerve (50 mg/kg of aminoguanidine), the “MCR correction (%)” value is given as 40% and the “SCR correction (%)” value turned out to be 45%.

Turning to `ClC(=NOCCN1CCCCC1)c1cccnc1` [Example 6, O-(2-piperidinoethyl)-3-pyridinehydroximoyl chloride hydrochloride], in test [1], the EC50 was found to be 13 µM.

In test [1], `ClC(=NOCCCN1CCOCC1)c1cccnc1` [Example 5, O-(3-morpholinopropyl)-3-pyridinehydroximoyl chloride dihydrochloride] returned an EC50 of 24 µM.
